Measurements taken from patent publication US20170037028A1 (BAYER PHARMA AKTIENGESELLSCHAFT, priority 2013, published 2017).

Biological target: T1, GLUT1 (Homo sapiens, UniProt P11166)
T1 sequence (P11166 1-492): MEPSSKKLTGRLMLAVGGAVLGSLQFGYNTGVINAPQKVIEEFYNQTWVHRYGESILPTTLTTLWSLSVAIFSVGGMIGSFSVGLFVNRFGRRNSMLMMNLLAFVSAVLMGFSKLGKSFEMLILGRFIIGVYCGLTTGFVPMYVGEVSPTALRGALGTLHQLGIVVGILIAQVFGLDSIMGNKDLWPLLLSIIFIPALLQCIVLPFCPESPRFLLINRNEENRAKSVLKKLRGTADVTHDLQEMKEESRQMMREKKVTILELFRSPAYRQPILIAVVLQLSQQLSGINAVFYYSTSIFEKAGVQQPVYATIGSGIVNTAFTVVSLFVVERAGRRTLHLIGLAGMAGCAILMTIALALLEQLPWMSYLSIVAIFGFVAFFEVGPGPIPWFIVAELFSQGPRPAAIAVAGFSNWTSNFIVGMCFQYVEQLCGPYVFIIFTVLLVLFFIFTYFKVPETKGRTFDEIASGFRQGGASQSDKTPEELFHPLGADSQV
Test: Indirect measurement of GLUT1 activity by quantification of intracellular ATP levels (glucose induced ATP increase)
Assay type: cell-based
Parameters: endogenous in cells; host or cells: DLD1 or CHO-K1
Settings: read-out: IC50 regarding glucose induced ATP increase (GLUT1 inhibition)
Procedure, shortened: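 Intracellular ATP was measured by CellTiter-Glo luminescence as an indirect readout of transport: glucose-driven for GLUT1, fructose-driven for GLUT2. DLD1 or CHO-K1 cells were used alongside an oxidative phosphorylation inhibitor. Beforehand, cells were held overnight in glucose-free 1% FCS medium to deplete ATP.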

SMILES | IC50
COc1cccc(Cn2nc(C)c(NC(=O)c3cc(C(N)=O)nc4cccc(F)c34)c2C)c1 [Example 1451] | 8.5 nM
COc1cccc(Cn2nc(C)c(NC(=O)c3cc(C(N)=O)nc4ccccc34)c2C)c1 [Example 1452] | 8.8 nM
Cc1nn(Cc2cccc(C#N)c2)c(C)c1NC(=O)c1cc(C(N)=O)nc2cc(F)ccc12 [Example 1454] | 13.3 nM
Cc1nn(Cc2cccc(C#N)c2)c(C)c1NC(=O)c1cc(C(N)=O)nc2ccccc12 [Example 1455] | 20.8 nM
Cc1nn(Cc2cccc(C#N)c2)c(C)c1NC(=O)c1cc(C(N)=O)nc2cccc(F)c12 [Example 1457] | 15.2 nM
COc1cccc(Cn2nc(C)c(NC(=O)c3cc(C(N)=O)nc4cc(F)ccc34)c2C)c1 [Example 1459] | 9.8 nM
Cc1nn(Cc2ccc(OC(F)(F)F)cc2)c(C)c1NC(=O)c1cc(C(N)=O)nc2cc(F)ccc12 [Example 1461] | 8.7 nM
Cc1c(NC(=O)c2cc(C(N)=O)nc3cccc(F)c23)c(C(F)(F)F)nn1Cc1ccc(OC(F)(F)F)cc1 [Example 1467] | 7.6 nM
Cc1c(NC(=O)c2cc(C(N)=O)nc3cc(F)c(Cl)cc23)c(C(F)(F)F)nn1Cc1ccc(OC(F)(F)F)cc1 [Example 1468] | 12.9 nM
Cc1nn(Cc2ccc(F)c(F)c2)c(C)c1NC(=O)c1cc(C(N)=O)nc2cccc(F)c12 [Example 1471] | 12.3 nM
Cc1cccc(Cn2nc(C)c(NC(=O)c3cc(C(N)=O)nc4cccc(F)c34)c2C)c1 [Example 1475] | 8.4 nM
Cc1cccc(Cn2nc(C(F)(F)F)c(NC(=O)c3cc(C(N)=O)nc4cccc(F)c34)c2C)c1 [Example 1479] | 22.7 nM
Cc1cccc(Cn2nc(C(F)(F)F)c(NC(=O)c3cc(C(N)=O)nc4cc(F)ccc34)c2C)c1 [Example 1480] | 10.5 nM
Cc1nn(Cc2ccc(S(C)(=O)=O)cc2)c(C)c1NC(=O)c1cc(C(N)=O)nc2cc(F)ccc12 [Example 1483] | 48.8 nM
Cc1nn(Cc2ccc(S(C)(=O)=O)cc2)c(C)c1NC(=O)c1cc(C(N)=O)nc2cccc(F)c12 [Example 1484] | 23.4 nM
Cc1nn(Cc2ccc(S(C)(=O)=O)cc2)c(C)c1NC(=O)c1cc(C(N)=O)nc2ccc(Br)cc12 [Example 1486] | 9.6 nM
Cc1nn(Cc2ccc(F)cc2F)c(C)c1NC(=O)c1cc(C(N)=O)nc2cccc(F)c12 [Example 1488] | 6.8 nM
COc1ccccc1Cn1nc(C(F)(F)F)c(NC(=O)c2cc(C(N)=O)nc3cc(F)c(Cl)cc23)c1C [Example 1491] | 41.5 nM
COc1ccccc1Cn1nc(C(F)(F)F)c(NC(=O)c2cc(C(N)=O)nc3ccccc23)c1C [Example 1492] | 113 nM
COc1ccccc1Cn1nc(C(F)(F)F)c(NC(=O)c2cc(C(N)=O)nc3cccc(F)c23)c1C [Example 1493] | 69.6 nM
Cc1ccccc1Cn1nc(C(F)(F)F)c(NC(=O)c2cc(C(N)=O)nc3ccccc23)c1C [Example 1494] | 8.3 nM
Cc1ccccc1Cn1nc(C(F)(F)F)c(NC(=O)c2cc(C(N)=O)nc3cc(F)ccc23)c1C [Example 1495] | 7.3 nM
Cc1ccccc1Cn1nc(C(F)(F)F)c(NC(=O)c2cc(C(N)=O)nc3cccc(F)c23)c1C [Example 1496] | 6.2 nM
Cc1c(NC(=O)c2cc(C(N)=O)nc3ccc(Br)cc23)c(C(F)(F)F)nn1Cc1ccc(OC(F)(F)F)cc1 [Example 1498] | 8 nM
CCc1nc(Cn2nc(C)c(NC(=O)c3cc(C(F)(F)F)nc4ccc(Br)cc34)c2C)no1 [Example 1499] | 13.4 nM
CCc1nc(Cn2nc(C)c(NC(=O)c3cc(C(N)=O)nc4ccccc34)c2C)no1 [Example 1500] | 20.1 nM
Cc1nn(Cc2nc(C3CC3)no2)c(C)c1NC(=O)c1cc(C(N)=O)nc2ccccc12 [Example 1501] | 73.7 nM
Cc1nn(Cc2nc(C3CC3)no2)c(C)c1NC(=O)c1cc(C(F)(F)F)nc2ccc(Br)cc12 [Example 1502] | 213 nM

More lines, now with the values ahead:

IC50 | SMILES
2.3 nM | COc1cccc(Cn2nc(C(F)(F)F)c(NC(=O)c3cc(C(N)=O)nc4ccc(Br)cc34)c2C)c1 [Example 1450]
1.4 nM | COc1cccc(Cn2nc(C)c(NC(=O)c3cc(C(N)=O)nc4cc(F)c(Cl)cc34)c2C)c1 [Example 1453]
1.5 nM | Cc1nn(Cc2cccc(C#N)c2)c(C)c1NC(=O)c1cc(C(N)=O)nc2cc(F)c(Cl)cc12 [Example 1456]
2.3 nM | COc1cccc(Cn2nc(C)c(NC(=O)c3cc(C(N)=O)nc4ccc(Br)cc34)c2C)c1 [Example 1458]
1.9 nM | Cc1nn(Cc2ccc(OC(F)(F)F)cc2)c(C)c1NC(=O)c1cc(C(N)=O)nc2ccccc12 [Example 1460]
2.9 nM | Cc1nn(Cc2ccc(OC(F)(F)F)cc2)c(C)c1NC(=O)c1cc(C(N)=O)nc2cccc(F)c12 [Example 1462]
4.1 nM | Cc1nn(Cc2ccc(OC(F)(F)F)cc2)c(C)c1NC(=O)c1cc(C(N)=O)nc2cc(F)c(Cl)cc12 [Example 1463]
5.5 nM | Cc1nn(Cc2ccc(OC(F)(F)F)cc2)c(C)c1NC(=O)c1cc(C(N)=O)nc2ccc(Br)cc12 [Example 1464]
5.1 nM | Cc1c(NC(=O)c2cc(C(N)=O)nc3ccccc23)c(C(F)(F)F)nn1Cc1ccc(OC(F)(F)F)cc1 [Example 1465]
5.4 nM | Cc1c(NC(=O)c2cc(C(N)=O)nc3cc(F)ccc23)c(C(F)(F)F)nn1Cc1ccc(OC(F)(F)F)cc1 [Example 1466]
5.5 nM | Cc1nn(Cc2ccc(F)c(F)c2)c(C)c1NC(=O)c1cc(C(N)=O)nc2ccc(Br)cc12 [Example 1469]
2.8 nM | Cc1nn(Cc2ccc(F)c(F)c2)c(C)c1NC(=O)c1cc(C(N)=O)nc2cc(F)ccc12 [Example 1470]
0.9 nM | Cc1nn(Cc2ccc(F)c(F)c2)c(C)c1NC(=O)c1cc(C(N)=O)nc2cc(F)c(Cl)cc12 [Example 1472]
5.2 nM | Cc1cccc(Cn2nc(C)c(NC(=O)c3cc(C(N)=O)nc4cc(F)c(Cl)cc34)c2C)c1 [Example 1473]
2.1 nM | Cc1cccc(Cn2nc(C)c(NC(=O)c3cc(C(N)=O)nc4cc(F)ccc34)c2C)c1 [Example 1474]
2.9 nM | Cc1cccc(Cn2nc(C)c(NC(=O)c3cc(C(N)=O)nc4cc(F)c(Cl)cc34)c2C)c1 [Example 1476]
4.3 nM | Cc1cccc(Cn2nc(C)c(NC(=O)c3cc(C(N)=O)nc4ccc(Br)cc34)c2C)c1 [Example 1477]
6.2 nM | Cc1cccc(Cn2nc(C(F)(F)F)c(NC(=O)c3cc(C(N)=O)nc4ccccc34)c2C)c1 [Example 1478]
5.5 nM | Cc1cccc(Cn2nc(C(F)(F)F)c(NC(=O)c3cc(C(N)=O)nc4cc(F)c(Cl)cc34)c2C)c1 [Example 1481]
5.3 nM | Cc1cccc(Cn2nc(C(F)(F)F)c(NC(=O)c3cc(C(N)=O)nc4ccc(Br)cc34)c2C)c1 [Example 1482]
5.3 nM | Cc1nn(Cc2ccc(S(C)(=O)=O)cc2)c(C)c1NC(=O)c1cc(C(N)=O)nc2cc(F)c(Cl)cc12 [Example 1485]
1.2 nM | Cc1nn(Cc2ccc(F)cc2F)c(C)c1NC(=O)c1cc(C(N)=O)nc2cc(F)ccc12 [Example 1487]
6 nM | Cc1nn(Cc2ccc(F)cc2F)c(C)c1NC(=O)c1cc(C(N)=O)nc2cc(F)c(Cl)cc12 [Example 1489]
3.7 nM | Cc1nn(Cc2ccc(F)cc2F)c(C)c1NC(=O)c1cc(C(N)=O)nc2ccc(Br)cc12 [Example 1490]
4.3 nM | Cc1ccccc1Cn1nc(C(F)(F)F)c(NC(=O)c2cc(C(N)=O)nc3cc(F)c(Cl)cc23)c1C [Example 1497]
